Target: human GSK3β (Homo sapiens, UniProt P49841)
Assay: Screening for GSK3 inhibitory activity using a cell-free assay
Format: biochemical
Settings: read-out: IC50 with respect to GSK3
Summary of the method: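 Compounds in DMSO were tested against human GSK3β over a three-hour kinase reaction. Radiolabeled phosphate transferred to the peptide was captured on streptavidin plates after EDTA/ATP stop and quantified by scintillation counting. Signal was plotted versus compound concentration.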

Sequence of human GSK3β (P49841 whole entry): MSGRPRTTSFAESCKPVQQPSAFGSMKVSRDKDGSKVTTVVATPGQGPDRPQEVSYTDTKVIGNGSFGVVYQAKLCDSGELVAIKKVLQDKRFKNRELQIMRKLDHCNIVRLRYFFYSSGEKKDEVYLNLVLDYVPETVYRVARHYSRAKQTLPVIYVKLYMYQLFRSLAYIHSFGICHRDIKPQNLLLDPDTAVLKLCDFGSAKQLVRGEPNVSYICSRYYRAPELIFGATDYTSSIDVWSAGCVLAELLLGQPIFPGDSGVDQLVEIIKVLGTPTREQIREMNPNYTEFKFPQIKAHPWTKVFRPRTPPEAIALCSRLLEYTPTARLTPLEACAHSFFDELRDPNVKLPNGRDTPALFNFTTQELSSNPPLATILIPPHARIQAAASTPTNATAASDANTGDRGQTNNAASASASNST

Compound | IC50 [µM]
Cc1cccc(CNC(=O)c2ccc(-c3ccnc(NCc4cccc(Br)c4)n3)cc2)c1 [[4-(2-{[(3-bromophenyl)methyl]amino}pyrimidin-4-yl)phenyl]-N-[(3-methylphenyl)methyl]carboxamide] | ≤ 10
O=C(NCc1cccs1)c1ccc(-c2ccnc(NCCNc3ccc([N+](=O)[O-])cn3)n2)cc1 [{4-[2-({2-[(5-nitro(2-pyridyl))amino]ethyl}amino)-pyrimidin-4-yl]phenyl}-N-(2-thienylmethyl)carboxamide] | ≤ 10
NC(=O)c1ccc(-c2ccnc(NCc3cc(C(F)(F)F)cc(C(F)(F)F)c3)n2)cc1 [4-[2-({[3,5-bis(trifluoromethyl)phenyl]methyl}amino)pyrimidin-4-yl]benzamide] | ≤ 10
Cc1cnc(NCCNc2ccccn2)nc1-c1ccc(Cl)cc1 [[4-(4-chlorophenyl)-5-methylpyrimidin-2-yl][2-(2-pyridylamino)ethyl]amine] | ≤ 10
Nc1nc(NCCNc2ncc(C(=O)O)c(-c3ccc([N+](=O)[O-])cc3)n2)ccc1[N+](=O)[O-] | ≤ 1
Cc1cnc(CNC(=O)c2ccc(-c3ccnc(NCCNc4ccc([N+](=O)[O-])cn4)n3)cc2)cn1 [N-[(5-methylpyrazin-2-yl)methyl]{4-[2-({2-[(5-nitro(2-pyridyl))amino]ethyl}amino)pyrimidin-4-yl]phenyl}carboxamide] | ≤ 10
CCOC(=O)c1cnc(NCCNc2ccc([N+](=O)[O-])c(NCc3ccccc3)n2)nc1-c1ccc(C#N)cc1 | ≤ 10
CCOC(=O)c1cnc(NCCNc2ccc([N+](=O)[O-])c(N)n2)nc1-c1ccc(C#N)cc1 [ethyl 2-({2-[(6-amino-5-nitro(2-pyridyl))amino]ethyl}amino)-4-(4-cyanophenyl)pyrimidine-5-carboxylate] | ≤ 1
CN(C)CCc1noc(-c2cnc(NCCNc3ccc([N+](=O)[O-])c(N)n3)nc2-c2ccc(Cl)cc2Cl)n1 [(2-{5-[2-({2-[(6-amino-5-nitro(2-pyridyl))amino]-ethyl}amino)-4-(2,4-dichlorophenyl)pyrimidin-5-yl](1,2,4-oxadiazol-3-yl)}ethyl)-dimethylamine] | ≤ 1
O=C(O)c1c(-c2ccncc2)nc(NCCNc2ccc([N+](=O)[O-])cn2)nc1-c1ccc([N+](=O)[O-])cc1 [2-({2-[(5-nitro(2-pyridyl))amino]ethyl}amino)-6-(4-nitrophenyl)-4-(4-pyridyl)pyrimidine-5-carboxylic acid] | ≤ 10
CC(CNc1nccc(-c2ccc(C(N)=O)cc2)n1)c1ccccc1 (stereo not shown) [4-{2-[(2-phenylpropyl)amino]pyrimidin-4-yl}benzamide] | ≤ 1
O=C(O)c1c(-c2ccc([N+](=O)[O-])cc2)nc(NCCNc2ccc([N+](=O)[O-])cn2)nc1-c1ccnc2ccccc12 [2-({2-[(5-nitro(2-pyridyl))amino]ethyl}amino)-6-(4-nitrophenyl)-4-(4-quinolyl)pyrimidine-5-carboxylic acid] | ≤ 10
NC(=O)c1ccc(-c2ccnc(NCc3cccc(-c4cccc(C(F)(F)F)c4)c3)n2)cc1 [4-{2-[({3-[3-(trifluoromethyl)phenyl]phenyl}methyl)amino]pyrimidin-4-yl}benzamide] | ≤ 10
O=[N+]([O-])c1ccc(NCCNc2nccc(NCc3ccc(Cl)cc3)n2)nc1 [[(4-chlorophenyl)methyl][2-({2-[(5-nitro(2-pyridyl))amino]ethyl}amino)pyrimidin-4-yl]amine] | ≤ 10
O=C(O)c1c(-c2ccc([N+](=O)[O-])cc2)nc(NCCNc2ccc([N+](=O)[O-])cn2)nc1-c1cccc(O)c1 [4-(3-hydroxyphenyl)-2-({2-[(5-nitro(2-pyridyl))amino]ethyl}amino)-6-(4-nitrophenyl)pyrimidine-5-carboxylic acid] | ≤ 1
COc1ccc(CNc2nccc(-c3ccc(C(N)=O)cc3)n2)cc1OC [4-(2-{[(3,4-dimethoxyphenyl)methyl]amino}-pyrimidin-4-yl)benzamide] | ≤ 10
Cc1c[nH]c(-c2cnc(NCCNc3ccc([N+](=O)[O-])c(N)n3)nc2-c2ccc(Cl)cc2Cl)n1 [{2-[(6-amino-5-nitro(2-pyridyl))amino]-ethyl}[4-(2,4-dichlorophenyl)-5-(4-methylimidazol-2-yl)pyrimidin-2-yl]amine] | ≤ 1
CN1CCN(c2cnc(NCCNc3ccc([N+](=O)[O-])c(N)n3)nc2-c2ccc(Cl)cc2Cl)CC1 [{2-[(6-amino-5-nitro(2-pyridyl))amino]ethyl}[4-(2,4-dichlorophenyl)-5-(4-methylpiperazinyl)-pyrimidin-2-yl]amine] | ≤ 1
CCOC(=O)c1cnc(NCCNc2ccc([N+](=O)[O-])cn2)nc1-c1ccc(S(C)(=O)=O)cc1 [ethyl 4-[4-(methyl-sulfonyl)phenyl]-2-({2-[(5-nitro(2-pyridyl))amino]ethyl}amino)pyrimidine-5-carboxylate] | ≤ 1
CCOC(=O)c1c(CC)nc(NCCNc2ncccn2)nc1-c1ccc(C(N)=O)cc1 [ethyl 4-(4-carbamoylphenyl)-6-ethyl-2-{[2-(pyrimidin-2-ylamino)ethyl]amino}pyrimidine-5-carboxylate] | ≤ 10

Compound | IC50 [µM]
CCOC(=O)c1c(-c2ccc(C#N)cc2)nc(NCCNc2ccc([N+](=O)[O-])cn2)nc1-c1ccc([N+](=O)[O-])cc1 [ethyl 4-(4-cyanophenyl)-2-({2-[(5-nitro(2-pyridyl))amino]ethyl}amino)-6-(4-nitrophenyl)pyrimidine-5-carboxylate] | ≤ 1
COC(=O)c1cnc(NCCNc2ccc([N+](=O)[O-])cn2)nc1-c1cccnc1 [methyl 2-({2-[(5-nitro(2-pyridyl))amino]ethyl}amino)-4-(3-pyridyl)pyrimidine-5-carboxylate] | ≤ 10
Cc1cccc(CNc2nccc(-c3ccc(C(N)=O)cc3)n2)c1 [4-(2-{[(3-methylphenyl)-methyl]amino}pyrimidin-4-yl)benzamide] | ≤ 10
N#Cc1ccc(-c2nc(NCCNc3ccc([N+](=O)[O-])cn3)nc(-c3ccccc3)c2C(=O)O)cc1 [4-(4-cyanophenyl)-2-({2-[(5-nitro(2-pyridyl))amino]ethyl}amino)-6-phenylpyrimidine-5-carboxylic acid] | ≤ 1
CCOC(=O)c1cnc(NCCNc2ncc([N+](=O)[O-])c(N)n2)nc1-c1ccc(C#N)cc1 [ethyl 2-({2-[(4-amino-5-nitropyrimidin-2-yl)amino]ethyl}amino)-4-(4-cyanophenyl)pyrimidine-5-carboxylate] | ≤ 1
C/C(=N\c1cnc(NCCNc2ccc([N+](=O)[O-])c(N)n2)nc1-c1ccc(Cl)cc1Cl)N1CCOCC1 [[5-((1E)-1-aza-2-morpholin-4-ylprop-1-enyl)-4-(2,4-dichlorophenyl)pyrimidin-2-yl]{2-[(6-amino-5-nitro(2-pyridyl))amino]ethyl}amine] | ≤ 1
CCOC(=O)c1c(CC)nc(NCCNc2ncccc2[N+](=O)[O-])nc1-c1ccc(C(N)=O)cc1 [ethyl 4-(4-carbamoylphenyl)-6-ethyl-2-({2-[(3-nitro(2-pyridyl))amino]ethyl}amino)pyrimidine-5-carboxylate] | ≤ 10
O=[N+]([O-])c1ccc(-c2ccnc(NCCNc3ccccn3)n2)cc1 [[4-(4-nitrophenyl)pyrimidin-2-yl][2-(2-pyridylamino)ethyl]amine] | ≤ 10
CCOC(=O)c1cnc(NCCNc2ccc([N+](=O)[O-])cn2)nc1-c1ccc(C#N)cc1 [ethyl 4-(4-cyanophenyl)-2-({2-[(5-nitro(2-pyridyl))amino]ethyl}amino)pyrimidine-5-carboxylate] | ≤ 1
CN(C)CCN(C)C(=O)c1cnc(NCCNc2ccc([N+](=O)[O-])cn2)nc1-c1ccc(C#N)cc1 [N-[2-(dimethylamino)ethyl][4-(4-cyanophenyl)-2-({2-[(5-nitro(2-pyridyl))amino]ethyl}amino)pyrimidin-5-yl]-N-methylcarboxamide] | ≤ 1
O=[N+]([O-])c1ccc(NCCNc2nccc(NCc3cccc(Cl)c3)n2)nc1 [[(3-chlorophenyl)methyl][2-({2-[(5-nitro(2-pyridyl))-amino]ethyl}amino)pyrimidin-4-yl]amine] | ≤ 10
CCOC(=O)c1c(CC)nc(NCCNc2ccc(C#N)cn2)nc1-c1ccc(C(N)=O)cc1 [ethyl 4-(4-carbamoylphenyl)-2-({2-[(5-cyano(2-pyridyl))amino]ethyl}amino)-6-ethylpyrimidine-5-carboxylate] | ≤ 1
CCOC(=O)c1cnc(NCCNc2ccc([N+](=O)[O-])cn2)nc1-c1ccc(F)cc1F [ethyl 4-(2,4-difluorophenyl)-2-({2-[(5-nitro(2-pyridyl))amino]ethyl}amino)pyrimidine-5-carboxylate] | ≤ 10
COc1cccc(CNC(=O)c2ccc(-c3ccnc(NCCNc4ccc([N+](=O)[O-])cn4)n3)cc2)c1 [N-[(3-methoxyphenyl)methyl]{4-[2-({2-[(5-nitro(2-pyridyl))amino]ethyl}amino)pyrimidin-4-yl]phenyl}carboxamide] | ≤ 1
NC(=O)c1ccc(-c2ccnc(NCCCc3nc(Cl)c(Cl)[nH]3)n2)cc1 [4-(2-{[3-(4,5-dichloroimidazolyl)propyl]amino}pyrimidin-4-yl)benzamide] | ≤ 1
CN(C)CCCCOC(=O)c1cnc(NCCNc2ccc([N+](=O)[O-])cn2)nc1-c1ccc(C#N)cc1 | ≤ 1
NC(=O)c1ccc(-c2ccnc(NCCNc3ccc([N+](=O)[O-])cn3)n2)cc1 [4-[2-({2-[(5-nitro-2-pyridyl)amino]ethyl}amino)-pyrimidin-4-yl]benzamide] | ≤ 1
COc1ccc(OC)c(CCNc2nccc(-c3ccc(C#N)cc3)n2)c1 [4-(2-{[2-(2,5-dimethoxyphenyl)ethyl]amino}pyrimidin-4-yl)benzene-carbonitrile] | ≤ 10
CCOC(=O)c1cnc(NCCNc2ccc([N+](=O)[O-])cn2)nc1-c1ccc(N(CC)CC)cc1 [ethyl 4-[4-(diethylamino)phenyl]-2-({2-[(5-nitro(2-pyridyl))amino]ethyl}-amino)pyrimidine-5-carboxylate] | ≤ 10
Nc1nc(NCCNc2ncc(N3C(=O)CCC3=O)c(-c3ccc(Cl)cc3Cl)n2)ccc1[N+](=O)[O-] [1-[2-({2-[(6-amino-5-nitro(2-pyridyl))amino]ethyl}amino)-4-(2,4-dichlorophenyl)pyrimidin-5-yl]-pyrrolidine-2,5-dione] | ≤ 1
